# Results taken from publication PMC2751796 (Pharmacology & therapeutics, 2009).
# Read-outs that look alike come from different tables or passages of the source.
# What was measured:
# P-gp and BCRP = conditions: ref de Vries et al., 2007; cited from earlier work
# Bcrp [1] = conditions: ref de Vries et al., 2007; cited from earlier work
# P-gp [2] = conditions: AUC, cited from earlier work
# P-gp [3] = conditions: ref de Vries et al., 2007; cited from earlier work
# Bcrp [4] = conditions: cited from earlier work
# [5] = highest dose; ref Bankstahl et al., 2008; cited from earlier work
# P-gp [6] = conditions: 150 mg, iv; ref Kurnik et al., 2008; cited from earlier work
# [7] = mice, 50 mg/kg, PO; ref Hubensack et al., 2008; cited from earlier work
# P-gp [8] = tested on: P-gp; set-up: species or system human; conditions: at 5.6 μM cyclosporine blood concentration
# P-gp [9] = conditions: cited from earlier work
# P-gp [10] = conditions: rhesus monkey, 8 mg/kg; ref Zoghbi et al., 2008; cited from earlier work
# P-gp [11] = conditions: ref Passchier et al., 2003; cited from earlier work
# [12] = mouse, in vivo; cited from earlier work
# [13] = ref Heideman et al., 1986; cited from earlier work
# rOAT3 = conditions: inhibition of rOAT3-mediated 6-mercaptopurine transport; ref Mori et al., 2004; cited from earlier work
# [14] = cited from earlier work
# Ent1 = conditions: mice; ref Lepist et al., 2008; cited from earlier work
# Mrp2 = conditions: ref Potschka et al., 2003; cited from earlier work
# [15] = tested on: MRPs, organic anion transporters; conditions: ref Potschka et al., 2003; cited from earlier work
# [16] = Elacridar (50 and 100 mg/kg, PO), ref de Vries et al., 2007
# [17] = intraventricularly injected, ref Bode et al., 1980
smiles,measurement,setting,value
CC[C@@]1(O)C(=O)OCc2c1cc1n(c2=O)Cc2cc3c(CN(C)C)c(O)ccc3nc2-1 [Topotecan],Increase of brain-to-plasma AUC ratio in Mdr1a/b-/-/Bcrp-/- mice,P-gp and BCRP,3.2 fold
same,Brain-to-plasma AUC ratio in Bcrp-/- mice compared to WT controls,Bcrp [1],not different
same,Fold change in brain uptake ratio in inhibitor-treated vs. control mice,P-gp [2]; [16],1.6 fold
same,Fold change in brain uptake ratio in inhibitor-treated vs. control mice (value corrected for drug in vasculature),P-gp [2]; [16],1.7 fold
same,Fold change in brain uptake ratio in inhibitor-treated vs. control mice,"P-gp [2]; Gefitinib (200 mg/kg, PO), microdialysis, ref Zhuang et al., 2006","1.7 ^b, AUC fold"
same,Brain-to-plasma AUC ratio in Mdr1a/b-/- mice compared to WT controls,P-gp [3],two times higher
same,Increase of oral bioavailability with elacridar in Mdr1a/b-/- mice,"Bcrp [4]; ref Jonker et al., 2000",more than 6 fold
same,Increase of placental transfer with elacridar in Mdr1a/b-/- mice,"Bcrp [4]; ref Jonker et al., 2000",> 2 fold
same,Increase of brain distribution with elacridar in Mdr1a/b-/- mice,"Bcrp [4]; ref de Vries et al., 2007",1.6 fold
COc1cc2c(cc1OC)CN(CCc1ccc(NC(=O)c3cc(OC)c(OC)cc3NC(=O)c3cnc4ccccc4c3)cc1)CC2 [Tariquidar],Tariquidar blood concentration,[5],1402 ng/mL
same,Tariquidar brain concentration,[5],4131 ng/mL
same,Inhibition of lymphocyte P-gp activity,P-gp [6],completely inhibited
same,Inhibitor concentration (brain),[7],3-9 nmol/g (brain) (∼2-fold greater in plasma)
CN([11CH3])C(=O)C(CCN1CCC(O)(c2ccc(Cl)cc2)CC1)(c1ccccc1)c1ccccc1 [[^11C]-Loperamide],Predicted increase in CNS distribution in humans,P-gp [8],56-412%
same,Increase in distribution of radioactivity at the human BBB on P-gp inhibition,P-gp [9]; data obtained so far,~100%
same,Increase of brain [^11C]-loperamide with cyclosporine in humans,"P-gp [9]; intravenous infusion 10 mg/kg/2 hr, ref Passchier et al., 2008",~110%
same,Increase in plasma radioactivity with DCPQ,P-gp [10],16%
same,Increase in brain radioactivity with cyclosporine in pigs,P-gp [11],up to 7 fold
CCC1(c2ccccc2)C(=O)NC(=O)NC1=O [Phenobarbital],"Brain uptake ratio in WT, untreated mice",[12],∼ 0.27-0.4
CN(Cc1cnc2nc(N)nc(N)c2n1)c1ccc(C(=O)N[C@@H](CCC(=O)O)C(=O)O)cc1 [Methotrexate],CNS distribution in untreated subjects (ventricular CSF / plasma AUC ratio),[13],0.02 (ventricular CSF / plasma AUC ratio)
same,Ki relative to estimated brain concentration in patients receiving chemotherapy,rOAT3,17.5 fold
same,Increase of CSF concentrations by probenecid,"[14]; 4 patients, ref Howell et al., 1979",2.8 to 4.2 fold
same,Effect of probenecid 1250 mg/m^2 daily on efflux kinetics,[14]; [17],did not change
same,Extension of terminal half life (CSF) by probenecid 2500 mg/m^2,[14]; [17],up to 53%
same,CSF concentrations with vincristine vs. monotherapy,"[14]; patient with lymphoma, ref Tejada & Zubrod, 1979",2.5 fold
same,Effect of vindesine on CSF concentration,"[14]; ref Tubiana et al., 1985",did not affect
OC[C@H]1O[C@@H](n2cnc3c(N[C@@H]4CCOC4)ncnc32)[C@H](O)[C@@H]1O [tecadenoson],Decrease in brain AUC with nitrobenzyl-mercaptopurine ribonucleoside,Ent1,2.5 fold
O=C1NC(=O)C(c2ccccc2)(c2ccccc2)N1 [Phenytoin],Extracellular concentrations and anticonvulsant activity vs. rats that do not lack Mrp2,Mrp2,two-fold greater
same,Enhancement of brain penetration and anticonvulsant activity by probenecid,[15],up to two-fold
